The values that follow are results of earlier work, collected in US11779563B2, “Oral cannabinoid pharmaceutical compositions and methods of treating sleep disorders” (Curio IP, LLC, priority 2021, dated 2023).

For the series the following is noted: following smoking of the equivalent of 10-15 mg over 5-7 minutes.

On to `CCCCCc1cc(O)c2c(c1)OC(C)(C)[C@@H]1CCC(C)=C[C@@H]21` [THC, (−)-(6aR,10aR)-6,6,9-trimethyl-3-pentyl-6a,7,8,10a-tetrahydro-6H-benzo[c]chromen-1-ol], for which the peak plasma levels result is reported as “around 100 μg/L”.
